Experimental findings from patent publication US10118131B2, “Method for preventing microbial growth on a filtration membrane” (KEMIRA OYJ, priority 2011, dated 2018) are described below.

Some results are limits rather than exact numbers.

A short description of series [1]: Flux of membrane before and after soaking in biocide in synthetic sea water (flat sheet cell). The settings on record: for Initial flux: before soaking. On the procedure: Flux and salt rejection of fresh membrane were measured before and after soaking. The membrane was placed in a flat sheet cell (Alfa Laval LabM20). The operating conditions were, feed pressure 20 bar (for sea water membrane 55 bar), salt (synthetic sea water prepared according to ASTM standard D1141), temperature 25° C. The flux measurement was done for 3 hours.
Soaking was done by mixing biocide with synthetic sea water. The concentration of the added biocide in the synthetic sea water was for PFA 14 and 84 mg/l as active substance, for peracetic acid (PAA) 7, 18 and 35 mg/l as active substance and sodium hypochlorite 20 mg/l as active substance. PFA was added to the synthetic seawater as an equilibrium solution having PFA content 14 weight-%, PAA was added as an equilibrium solution having PAA content 35 weight-% and sodium hypochlorite having concentration of 15 weight-%.
The soaking time was 24 or 144 hours. Performic acid equilibrium solution was made by mixing in 1:1 weight proportion of a solution that contained 50% hydrogen peroxide with a solution that contained 75 weight-% formic acid, 12 weight-% sulfuric acid and 13 weight-% water. After soaking membranes were placed again to the flat sheet cell and salt rejection and flux were measured at the same conditions as before soaking.

Series [2] can be described thus: Laboratory scale continuous filtration experiment, PFA added continuously into feed. On the procedure:
The impact of PFA on membrane was further studied by a laboratory scale continuous filtration experiment. The type of membrane used in the experiment was brackish water membrane (FilmTec BW30LE).
The continuous filtration has been done in parallel. From a single brackish water tank the water was pumped to two parallel lines with flat sheet cells having similar brackish water membrane. In one line PFA was added continuously into feed and in other line (control) there was no PFA addition. The filtration conditions were as follows: pressure 15 bar, salt (sea salt): 2 g/l, Temperature: 20° C., flow rate: 48 l/h, PFA dosing rate: 6.5 g/h equilibrium solution having PFA active substance concentration 14 weight-% (=19.8 ppm active substance/l of brackish water). Flux and conductivity of permeate and concentrate were monitored and collected over time (for 30 days).

With `[Na+].[O-]Cl` [Hypochlorite, sodium hypochlorite], the “differences between flux before and after soaking” value in series [1] (not told) was more than 15%.

For `CC(=O)OO` [Peracetic acid, peracetic acid], the Flux after soaking in series [1] (7 mg/l active substance in synthetic sea water, soaking 144 hour) was 73; in series [1] (18 mg/l active substance in synthetic sea water, soaking 144 hour), 53; in series [1] (35 mg/l active substance in synthetic sea water, soaking 144 hour), 44. The Initial flux in series [1] (membrane later soaked at 7 mg/l active substance, 144 hour) is listed as 86; in series [1] (membrane later soaked at 18 mg/l active substance, 144 hour), 91; in series [1] (membrane later soaked at 35 mg/l active substance, 144 hour), 86.

As to `O=COO` [Performic acid, performic acid], the Initial permeate flux in series [2] (19.8 ppm active substance continuously in feed, 15 bar, sea salt 2 g/l, 20° C.) is on record as 250 g/h. Moreover, in series [2] (19.8 ppm active substance continuously in feed, 30 days, 15 bar, sea salt 2 g/l, 20° C.), the Final permeate flux turned out to be 250 g/h. Moreover, the “changes in flux over test period” value in series [2] (FIG. 1 B, PFA added continuously, 30 days) is “small”. For the same molecule, the Flux after soaking in series [1] (14 mg/l active substance in synthetic sea water, soaking 144 hour) is given as 84; in series [1] (84 mg/l active substance in synthetic sea water, soaking 24 hour) it was 95. Besides, the Initial flux in series [1] (membrane later soaked at 14 mg/l active substance, 144 hour) turned out to be 86; in series [1] (membrane later soaked at 84 mg/l active substance, 24 hour), 98. In series [1] (soaked membranes of Table 1), the “differences between flux before and after soaking” value is “less than 15%”.
